Measured values taken from paper PMC6009892, “A novel series of pyrazole-platinum(II) complexes as potential anti-cancer agents that induce cell cycle arrest and apoptosis in breast cancer cells” (Journal of Enzyme Inhibition and Medicinal Chemistry, 2018).
Read-outs that look alike come from different tables or passages of the source.

Legend:
[1] = tested on: MCF-7 breast cancer cells; assay: Mitochondrial membrane potential JC-1, MCF-7; assay type: cell-based, human; settings: MCF-7, 20 μM, 24 h; untreated 7.4%
Method: Disruption of the MMP was assessed using the lipophilic cationic probe 5,5′,6,6′-tetrachloro-1,1′,3,3′-tetraethylbenzimidazolcarbocyanine iodide (JC-1 MitoScreen kit; BD Biosciences Systems, San Jose, CA), as described previously. Briefly, unfixed cells were washed and re-suspended in PBS supplemented with 10 µg/ml of JC-1. Cells were then incubated for 15 min at room temperature in the dark, washed, and re-suspended in PBS for immediate BD FACSCanto II flow cytometry analysis. The percentage of cells with disrupted MMP was calculated using FACSDiva software (both from BD Biosciences Systems, San Jose, CA).

[2] = tested on: human G1/S-specific cyclin D1 in MCF-7 cells; assay: Cyclin D1 ELISA in cell lysates, MCF-7; assay type: cell-based; settings: MCF-7, 20 μM, 24 h; untreated cells 2.6 ng/ml
Method: Cell lysates: Briefly, trypsinised cells were washed three times with cold PBS and centrifuged at 1000 g for 5 min at 4 °C. The cells (1 × 10^6) were suspended in lysis buffer for whole cell lysates. After centrifugation, the supernatants were frozen immediately at −70 °C. The concentration of human G1/S-specific cyclin D1 was measured. Cells without addition of compounds were treated as controls.
Determination of human G1/S-specific cyclin D1: The high sensitivity assay kit (EIAab) was used to determine the concentration of human G1/S-specific cyclin D1 in cell lysates. The microtiter plate provided in this kit has been pre-coated with an antibody specific to cyclin D1. Standards and samples were added to the appropriate microtiter plate wells. After 2 h of incubation at 37 °C, the plate was incubated with biotin-conjugated antibody for 1 h at 37 °C. Then microplate wells were aspirated and washed three times and then incubated with avidin conjugated to horseradish peroxidase (HRP). Then, a TMB substrate solution was added to each well. […] The enzyme–substrate reaction was terminated by the addition of a sulfuric acid solution and the color change was measured spectrophotometrically at a wavelength of 450 nm ± 2 nm. The concentration of cyclin D1 in the samples was determined by comparing the O.D. of the samples to the standard curve.

[3] = tested on: MCF-7 breast cancer cells; assay: Cell cycle analysis by flow cytometry (PI), MCF-7; assay type: cell-based, human; settings: breast cancer cells (MCF-7), 20 μM, 24 h, versus control
Method: Distribution of cell cycle phases was analysed by flow cytometry. Briefly, MCF-7 and MDA-MB-231 cells were seeded into six-well plates at a density of 2.5 × 10^5 cells per well and treated with 20 μM of PtPz1–PtPz6 for 24 h. After incubation, the cells were harvested and then fixed with 1 ml of 70% ethanol and kept overnight at −20 °C. Before analysis, the cells were re-suspended in PBS, treated with 50 μg/ml of DNase-free RNase A Solution (Promega), and stained with 100 μg/ml of PI. The FACSCanto II flow cytometer (BD Biosciences Systems, San Jose, CA) was used to read the fluorescence.

fibroblast cells = assay: MTT cell viability assay, fibroblasts; assay type: cell-based, human
Method: MCF-7, MDA-MB-231 (both human breast cancer cell lines), and fibroblast cells were obtained from American Type Culture Collection (ATCC, Manassas, VA, USA). DMEM and FBS used in a cell culture were from Gibco (USA). Glutamine, penicillin, and streptomycin were obtained from Quality Biologicals Inc. (USA). DMEM media was blended with 50 units/ml of penicillin, 50 μg/ml of streptomycin, 10% of FBS. All cell lines were cultured in 5% CO2 and fully humidified at 37 °C. Cells were cultured in Costar flasks and sub-confluent cells were detached with 0.05% trypsin and 0.02% ethylenediaminetetraacetic acid in calcium-free phosphate-buffered saline (PBS), counted in hemocytometers, and plated at 5 × 10^5 cells/well of six-well plates (Thermo Scientific, New York, NY, USA) in 2 ml of growth medium (DMEM without phenol red with 10% CPSR1). Cells reached about 80% of confluency at day 2, and in most cases such cells were used for the assays.
The viability of cultured cells was decided through assaying the reduction of MTT to formazan. In brief, MCF-7, MDA-MB-231, and fibroblast cells line were seeded at an initial density of 1 × 10^5 cells per well. Then, the cells were incubated at 37 °C for 24 h. Subsequently, cultured cells were treated with a medium containing concentrations (5, 10, 20, 30, 40, and 50 μM) of PtPz1–PtPz6 for 24 h and 48 h. After the incubation period, MTT was added into all wells in the final concentration of 0.5 mg/ml. After that, the cells were incubated at 37 °C for 4 h. Then, by removing the medium, 200 μl of DMSO was added to all wells. As a result, insoluble formazan was dissolved in DMSO (0.5%). At 570 nm (630 nm as a reference), the absorbance was measured in an Evolution 201 reader (Thermo Scientific, Waltham, MA).

[4] = tested on: caspase-9 in MDA-MB-231 breast cancer cells; assay: FLICA caspase-9 activity, flow cytometry, MDA-MB-231; assay type: cell-based, human; settings: MDA-MB-231, 20 μM, 24 h
Method: Caspase-9 activity was measured using the FLICA Caspase 9 Assay Kit (ImmunoChemistry Technologies, Bloomington, MN, USA), according to the manufacturer’s instructions. Briefly, cultured MCF-7 and MDA-MB-231 breast cancer cells (1 × 10^6) were washed with cold PBS twice and re-suspended in buffer. We added 5 µl of diluted FLICA reagent and 2 µl of Hoechst 33342 to 93 µl of cell suspension and mixed by pipetting. The cells were incubated for 60 min at 37°C. After incubation, the cells were washed twice in 400 µl of apoptosis wash buffer and centrifuged at 300 × g. After the last wash, we re-suspended cells in 100 µl of apoptosis wash buffer supplemented with 10 µg/ml PI. Analysis was performed using the BD FACSCanto II flow cytometer, and the results were analysed with FACSDiva software (both from BD Biosciences Systems, San Jose, CA).

[5] = tested on: MDA-MB-231 breast cancer cells; assay: Annexin V-FITC/PI flow cytometry, MDA-MB-231; assay type: cell-based, human; settings: MDA-MB-231, 20 μM, 24 h; for percent of cells with early and late apoptosis: control 7.1%
Method: (§1) To characterise the mode of cell death induced by PtPz1–PtPz6, a flow cytometry analysis was performed using Apoptosis Detection Kit II (BD Pharmingen, San Diego, CA), according to the manufacturer’s instructions. Cells (10000 cells measured) were analysed in a flow cytometer (BD FACSCanto II flow cytometer, San Jose, CA). Annexin V bound with high affinity to phosphatidylserine and thus could be used to identify cells in all stages of the programmed cell death. Propidium iodide (PI) stained cells with a disrupted cell membrane, and it could be used to identify late apoptotic and dead cells. Cells cultured in a drug-free medium were used as controls. […] Results were analysed with FACSDiva software (BD Biosciences Systems, San Jose, CA).

[6] = tested on: MCF-7 breast cancer cells; assay: Annexin V-FITC/PI flow cytometry, MCF-7; assay type: cell-based, human; settings: MCF-7, 20 μM, 24 h; for percent of cells with early and late apoptosis: control 8.5%
Method: as §1

[7] = 24 h incubation, 5-50 μM, read-out: IC50 (cell viability, MTT)
[8] = 48 h incubation, 5-50 μM, read-out: IC50 (cell viability, MTT)

SMILES: Cc1cc(C)[n+]([Pt-2]2([n+]3c(C)cc(C)n3CO)[N](c3ccc(C(=N)N)cc3)N=[N+](c3ccc(C(=N)N)cc3)[Pt-2]([n+]3c(C)cc(C)n3CO)([n+]3c(C)cc(C)n3CO)[N](c3ccc(C(=N)N)cc3)N=[N+]2c2ccc(C(=N)N)cc2)n1CO.Cl.Cl.Cl.Cl.O.O [PtPz1, [Pt2(N-hydroxymethyl-3,5-dimethylpyrazole)4(berenil)2]·4HCl·2H2O]
- percent of cells with decrease ΔΨm [1]: 91.7%
- concentration of cyclin D1 [2]: 0.8 ng/mL
- accumulation of cells in G2/M phase [3]: 2.0 fold
- IC50 (fibroblast cells; [7]): 24 ± 3 µM
- IC50 (fibroblast cells; [8]): 19 ± 2 µM
- percent of cells with active caspase-9 [4]: 47.9%

SMILES: Cc1cc(C)[n+]([Pt-2]2([n+]3[nH]c(C)cc3C)[N](c3ccc(C(=N)N)cc3)N=[N+](c3ccc(C(=N)N)cc3)[Pt-2]([n+]3[nH]c(C)cc3C)([n+]3[nH]c(C)cc3C)[N](c3ccc(C(=N)N)cc3)N=[N+]2c2ccc(C(=N)N)cc2)[nH]1.Cl.Cl.Cl.Cl.O.O [PtPz2, [Pt2(3,5-dimethylpyrazole)4(berenil)2]·4HCl·2H2O]
- percent of cells with decrease ΔΨm [1]: 90.0%
- accumulation of cells in G2/M phase [3]: 2.0 fold
- IC50 (fibroblast cells; [7]): 27 ± 2 µM
- IC50 (fibroblast cells; [8]): 24 ± 2 µM
- percent of cells with active caspase-9 [4]: 46.5%

SMILES: Cc1c[nH][n+]([Pt-2]2([n+]3[nH]cc(C)c3C)[N](c3ccc(C(=N)N)cc3)N=[N+](c3ccc(C(=N)N)cc3)[Pt-2]([n+]3[nH]cc(C)c3C)([n+]3[nH]cc(C)c3C)[N](c3ccc(C(=N)N)cc3)N=[N+]2c2ccc(C(=N)N)cc2)c1C.Cl.Cl.Cl.Cl.O.O [PtPz3, [Pt2(3,4-dimethylpyrazole)4(berenil)2]·4HCl·2H2O]
- percent of cells with decrease ΔΨm [1]: 86.2%
- accumulation of cells in G2/M phase [3]: 2.0 fold
- IC50 (fibroblast cells; [7]): 32 ± 1 µM
- IC50 (fibroblast cells; [8]): 28 ± 1 µM
- percent of cells with active caspase-9 [4]: 41.1%

SMILES: Cc1ccn[nH]1.Cc1ccn[nH]1.Cc1ccn[nH]1.Cc1ccn[nH]1.Cl.Cl.Cl.Cl.N=C(N)c1ccc(N=N[N]([Pt])c2ccc(C(=N)N)cc2)cc1.N=C(N)c1ccc(N=N[N]([Pt])c2ccc(C(=N)N)cc2)cc1.O.O [PtPz5, [Pt2(5-methylpyrazole)4(berenil)2]·4HCl·2H2O]
- IC50 (fibroblast cells; [7]): 35 ± 1 µM
- IC50 (fibroblast cells; [8]): 31 ± 2 µM
- percent of cells with active caspase-9 [4]: 38.6%

SMILES: CCn1ccc[n+]1[Pt-2]1([n+]2cccn2CC)[N](c2ccc(C(=N)N)cc2)N=[N+](c2ccc(C(=N)N)cc2)[Pt-2]([n+]2cccn2CC)([n+]2cccn2CC)[N](c2ccc(C(=N)N)cc2)N=[N+]1c1ccc(C(=N)N)cc1.Cl.Cl.Cl.Cl.O.O [PtPz6, [Pt2(N-ethylpyrazole)4(berenil)2]·4HCl·2H2O]
- percent of cells with early and late apoptosis [5]: 18.6%
- viable cells ([5]; control 91.6%): 79.4%
- percent of cells with early and late apoptosis [6]: 17.2%
- viable cells ([6]; control 89.7%): 80.9%
- IC50 (fibroblast cells; [7]): > 50 µM
- IC50 (fibroblast cells; [8]): > 50 µM
- percent of cells with active caspase-9 [4]: 24.6%

SMILES: N.N.[Cl][Pt][Cl] [cisplatin, reference compound]
- percent of cells with early and late apoptosis [5]: 10.1%
- percent of cells with early and late apoptosis [6]: 10.4%
- IC50 (fibroblast cells; [8]): > 50 µM
- IC50 (fibroblast cells; read-out: IC50 (additional test for cisplatin), 24 h, additional test in concentrations allowing to determine IC50): > 100 µM
- IC50 (fibroblast cells; read-out: IC50 (additional test for cisplatin), 48 h, additional test in concentrations allowing to determine IC50): > 100 µM
- percent of cells with active caspase-9 [4]: 7.3%
